What was measured:
Axl = target: T1, Axl (Homo sapiens, UniProt P30530); experiment: Phospho-AKT HTRF, HUVEC, Axl ABX-L, 8 pt; assay type: cell-based; settings: HUVEC cells, pAkt(Ser473) HTRF, Axl ABX-L stimulation
T1 construct: Seed HUVECs (10K cells/well) in EBM-2 complete media; host or cells: HUVEC
T1 sequence (P30530 26-894): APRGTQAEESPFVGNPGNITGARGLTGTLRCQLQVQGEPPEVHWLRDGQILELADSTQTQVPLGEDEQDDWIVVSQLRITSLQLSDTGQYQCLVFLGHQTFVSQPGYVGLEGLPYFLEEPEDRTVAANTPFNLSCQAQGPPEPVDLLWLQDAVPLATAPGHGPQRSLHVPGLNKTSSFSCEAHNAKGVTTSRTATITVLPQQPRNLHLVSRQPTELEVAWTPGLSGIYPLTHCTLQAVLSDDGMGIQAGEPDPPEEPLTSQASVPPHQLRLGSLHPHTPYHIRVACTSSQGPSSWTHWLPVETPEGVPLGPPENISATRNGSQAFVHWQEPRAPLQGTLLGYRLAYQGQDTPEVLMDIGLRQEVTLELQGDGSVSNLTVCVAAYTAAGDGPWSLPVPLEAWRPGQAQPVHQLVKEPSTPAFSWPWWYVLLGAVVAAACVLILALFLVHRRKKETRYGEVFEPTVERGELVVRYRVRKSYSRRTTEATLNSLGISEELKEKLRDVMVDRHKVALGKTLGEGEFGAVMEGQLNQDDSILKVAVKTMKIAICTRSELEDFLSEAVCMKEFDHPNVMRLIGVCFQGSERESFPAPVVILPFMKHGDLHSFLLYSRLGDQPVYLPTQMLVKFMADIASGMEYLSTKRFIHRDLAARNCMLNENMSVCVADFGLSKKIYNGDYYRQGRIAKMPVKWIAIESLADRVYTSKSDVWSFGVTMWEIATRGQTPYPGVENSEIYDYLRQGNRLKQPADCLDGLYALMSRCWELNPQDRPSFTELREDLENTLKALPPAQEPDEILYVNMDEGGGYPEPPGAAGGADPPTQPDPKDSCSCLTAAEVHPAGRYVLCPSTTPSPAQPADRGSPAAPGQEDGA
Protocol: [The source words this procedure for another target and reports this target under the same test.] (§1) Example 13: PAKT HTRF-HUVEC Assay
(§2) Seed HUVECs (10K cells/well) in EBM-2 complete media (EBM-2 basal medium plus EGM-2 BulletKit supplements) overnight at 37° C., 5% CO2 in Costar 96-well white clear-bottom plates. Remove culture media and starve cells for 3-4 hours in 50 μL/well EBM-2 basal medium. Perform serial dilution of compounds in DMSO from 2.5 mM in 4-fold dilutions, and then dilute 1:125 in EBM-2 basal media. Mix 50 μL/well 2× compounds with 50 μL/well HUVECs in duplicate in Costar 96-well white clear-bottom plates. Incubate plates for 1 hour at 37° C., 5% CO2. Cross-link anti-human MerTK antibody to Biotin-SP-conjugated anti-mouse IgG antibody (1:1) to give final concentrations of 5 μg/mL of anti-human MerTK-XL. Stimulate HUVECs with 25 μL/well 5× anti-human MerTK-XL to give final concentrations of 1 ug/mL for 10 minutes at 37° C., 5% CO2. Completely remove media and lyse HUVECs with 40 uL:WELL per well of Cisbio HTRF 1× lysis buffer. Performed pAkt(Ser473) HTRF assay in ProxiPlate-384 Plus, white 384-shallow well microplate according to the vendor protocol and read plates with a SpectralMax Paradigm plate reader. Enter the HTRF values into Athena (Rigel) for curve fitting, EC50 calculation, and database storage.

MerTK = target: T2, MerTK (Homo sapiens, UniProt Q12866); experiment: Phospho-AKT HTRF, HUVEC, Mer-XL, 8 pt (pAKT HTRF-HUVEC assay, anti-human MerTK-XL stimulation); assay type: cell-based; settings: HUVEC cells, pAkt(Ser473) HTRF, anti-human MerTK-XL stimulation 1 ug/mL 10 minutes
T2 construct: Seed HUVECs (10K cells/well) in EBM-2 complete media; host or cells: HUVEC
T2 sequence (Q12866 21-999): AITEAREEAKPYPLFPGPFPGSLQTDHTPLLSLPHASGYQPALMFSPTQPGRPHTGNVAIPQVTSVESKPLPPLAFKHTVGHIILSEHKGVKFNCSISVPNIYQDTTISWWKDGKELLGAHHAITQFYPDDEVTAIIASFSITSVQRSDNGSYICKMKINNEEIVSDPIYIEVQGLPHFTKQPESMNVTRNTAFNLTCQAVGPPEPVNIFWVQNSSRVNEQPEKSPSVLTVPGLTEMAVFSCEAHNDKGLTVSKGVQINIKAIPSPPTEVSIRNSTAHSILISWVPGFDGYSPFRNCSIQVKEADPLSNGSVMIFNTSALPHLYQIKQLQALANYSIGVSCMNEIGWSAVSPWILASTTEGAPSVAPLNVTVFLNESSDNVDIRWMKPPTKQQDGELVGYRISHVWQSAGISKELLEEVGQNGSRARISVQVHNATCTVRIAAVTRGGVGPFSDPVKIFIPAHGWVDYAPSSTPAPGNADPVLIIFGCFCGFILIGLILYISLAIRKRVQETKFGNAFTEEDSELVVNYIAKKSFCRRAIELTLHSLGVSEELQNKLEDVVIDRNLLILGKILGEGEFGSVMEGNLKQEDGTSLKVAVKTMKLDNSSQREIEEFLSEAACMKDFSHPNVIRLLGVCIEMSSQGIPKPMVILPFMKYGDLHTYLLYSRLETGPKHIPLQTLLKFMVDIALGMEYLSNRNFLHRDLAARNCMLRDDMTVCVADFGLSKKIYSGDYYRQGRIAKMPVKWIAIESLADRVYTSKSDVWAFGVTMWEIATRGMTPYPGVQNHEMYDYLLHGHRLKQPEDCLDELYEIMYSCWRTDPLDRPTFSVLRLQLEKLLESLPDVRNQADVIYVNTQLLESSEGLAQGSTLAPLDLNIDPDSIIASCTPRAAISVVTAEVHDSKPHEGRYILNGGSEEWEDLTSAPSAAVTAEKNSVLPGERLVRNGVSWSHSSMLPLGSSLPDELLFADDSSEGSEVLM
Protocol: as §1, §2

Row | EC50 (Axl) [nM] | EC50 (MerTK) [nM] | Structure (SMILES)
1 | 18.2 | 10 | COc1cc2c(Oc3ccc(NC(=O)c4cc(-c5ccccc5)c5c(n4)C4CCN5CC4)nc3)ccnc2cc1OCCCN1CCOCC1 [Compound 7, N-(5-((6-Methoxy-7-(3-morpholinopropoxy)quinolin-4-yl)oxy)pyridin-2-yl)-8-phenyl-3,4-dihydro-2H-1,4-ethano-1,5-naphthyridine-6-carboxamide, hydrochloric acid]
2 | 403 | 421 | COc1cc2c(Oc3ccc(NC(=O)c4cc(N5CCN(C)CC5)ccn4)nc3)ccnc2cc1OCCCN1CCOCC1 [Compound 1, N-(5-((6-Methoxy-7-(3-morpholinopropoxy)quinolin-4-yl)oxy)pyridin-2-yl)-4-(4-methylpiperazin-1-yl)picolinamide]
3 | 99.4 | 72.1 | COc1cc2c(Oc3ccc(NC(=O)c4nc5ccccc5c(=O)[nH]4)nc3)ccnc2cc1OCCCN1CCOCC1 [Compound 12, N-(5-((6-Methoxy-7-(3-morpholinopropoxy)quinolin-4-yl)oxy)pyridin-2-yl)-4-oxo-3,4-dihydroquinazoline-2-carboxamide]
4 | 568 | 505 | COc1cc2c(Oc3ccc(NC(=O)c4cc(N5CC6(COC6)C5)ccn4)nc3)ccnc2cc1OCCCN1CCOCC1 [Compound 19, N-(5-((6-methoxy-7-(3-morpholinopropoxy)quinolin-4-yl)oxy)pyridin-2-yl)-4-(2-oxa-6-azaspiro[3.3]heptan-6-yl)picolinamide]
5 | 71.7 | 42.7 | COc1cc2c(Oc3ccc(NC(=O)c4nc5ccccc5c(=O)[nH]4)nc3)ccnc2cc1OCCCN1CCOCC1 [Compound 9, N-(5-((6-Methoxy-7-(3-morpholinopropoxy)quinolin-4-yl)oxy)pyridin-2-yl)-4-oxo-3,4-dihydroquinazoline-2-carboxamide, trifluoroacetic acid]
6 | 739 | 311 | COc1cc2c(Oc3ccc(NC(=O)c4cc(F)ccn4)nc3)ccnc2cc1OCCCN1CCOCC1 [Compound 31, 4-Fluoro-N-(5-((6-methoxy-7-(3-morpholinopropoxy)quinolin-4-yl)oxy)pyridin-2-yl)picolinamide]
7 | 110 | 9.4 | COc1cc2c(Oc3ccc(NC(=O)c4cccc(N5CC(F)(F)C5)n4)nc3)ccnc2cc1OCCCN1CCOCC1 [Compound 30, 6-(3,3-difluoroazetidin-1-yl)-N-(5-((6-methoxy-7-(3-morpholinopropoxy)quinolin-4-yl)oxy)pyridin-2-yl)picolinamide]
8 | 102 | 79.9 | COc1cc2c(Oc3ccc(NC(=O)c4ncc(Br)s4)nc3)ccnc2cc1OCCCN1CCOCC1 [Compound 44, 5-bromo-N-(5-((6-methoxy-7-(3-morpholinopropoxy)quinolin-4-yl)oxy)pyridin-2-yl)thiazole-2-carboxamide]
9 | 257 | 204 | CCOC1CCN(c2ccnc(C(=O)Nc3ccc(Oc4ccnc5cc(OCCCN6CCOCC6)c(OC)cc45)cn3)c2)CC1 [Compound 15, 4-(4-ethoxypiperidin-1-yl)-N-(5-((6-methoxy-7-(3-morpholinopropoxy)quinolin-4-yl)oxy)pyridin-2-yl)picolinamide]
10 | 462 | 162 | COc1cc2c(Oc3ccc(NC(=O)c4cc(C)ccn4)nc3)ccnc2cc1OCCCN1CCOCC1 [Compound 32, N-(5-((6-Methoxy-7-(3-morpholinopropoxy)quinolin-4-yl)oxy)pyridin-2-yl)-4-methylpicolinamide]
11 | 3 | 5 | COc1cc2c(Oc3ccc(NC(=O)c4nc(-c5ccccc5)c5c(n4)C4CCN5CC4)nc3)ccnc2cc1OCCCN1CCOCC1 [Compound 35, N-(5-((6-methoxy-7-(3-morpholinopropoxy)quinolin-4-yl)oxy)pyridin-2-yl)-4-phenyl-7,8-dihydro-6H-5,8-ethanopyrido[3,2-d]pyrimidine-2-carboxamide]
12 | 66.8 | 13 | COc1cc2c(Oc3ccc(NC(=O)c4cccc(N5CCCCC5)n4)nc3)ccnc2cc1OCCCN1CCOCC1 [Compound 23, N-(5-((6-methoxy-7-(3-morpholinopropoxy)quinolin-4-yl)oxy)pyridin-2-yl)-6-(piperidin-1-yl)picolinamide]
13 | 5.8 | 9.5 | COc1cc2c(Oc3ccc(NC(=O)c4nc(-c5ccccc5)c5c(n4)C4CCN5CC4)cc3F)ccnc2cc1OCCCN1CCOCC1 [Compound 36, N-(3-fluoro-4-((6-methoxy-7-(3-morpholinopropoxy)quinolin-4-yl)oxy)phenyl)-4-phenyl-7,8-dihydro-6H-5,8-ethanopyrido[3,2-d]pyrimidine-2-carboxamide]
14 | 1.4 | 2.2 | COc1cc2c(Oc3ccc(NC(=O)c4nc(-c5ccccc5)c5ccccc5n4)nc3)ccnc2cc1OCCCN1CCOCC1 [Compound 5, N-(5-((6-Methoxy-7-(3-morpholinopropoxy)quinolin-4-yl)oxy)pyridin-2-yl)-4-phenylquinazoline-2-carboxamide]
15 | 188 | 161 | COc1ccnc(C(=O)Nc2ccc(Oc3ccnc4cc(OCCCN5CCOCC5)c(OC)cc34)cn2)c1 [Compound 33, 4-Methoxy-N-(5-((6-methoxy-7-(3-morpholinopropoxy)quinolin-4-yl)oxy)pyridin-2-yl)picolinamide]
16 | 43.2 | 27.9 | COc1cc2c(Oc3ccc(NC(=O)c4cc(N5CCCC5)ccn4)nc3)ccnc2cc1OCCCN1CCOCC1 [Compound 16, N-(5-((6-methoxy-7-(3-morpholinopropoxy)quinolin-4-yl)oxy)pyridin-2-yl)-4-(pyrrolidin-1-yl)picolinamide]
17 | 13.1 | 7.7 | COc1cc2nccc(Oc3ccc(NC(=O)c4nc(-c5ccccc5)c5c(n4)C4CCN5CC4)nc3)c2cc1OC [Compound 38, N-(5-((6,7-dimethoxyquinolin-4-yl)oxy)pyridin-2-yl)-4-phenyl-7,8-dihydro-6H-5,8-ethanopyrido[3,2-d]pyrimidine-2-carboxamide]
18 | 26.8 | 15.4 | COc1cc2ncnc(Oc3ccc(NC(=O)c4nc(-c5ccccc5)c5c(n4)C4CCN5CC4)nc3)c2cc1OC [Compound 49, N-(5-((6,7-dimethoxyquinazolin-4-yl)oxy)pyridin-2-yl)-4-phenyl-7,8-dihydro-6H-5,8-ethanopyrido[3,2-d]pyrimidine-2-carboxamide]
